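Step 1: Grow cells in 96-well plates. Step 2: Expose to compound for 48 hours at 5 concentrations. Step 3: Interpolate endpoints linearly; if unreached, use highest concentration. At the GI50, growth is halved. TGI denotes the concentration required for complete inhibition of growth.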
Tests used:
Assay in all cases: growth of human tumour cells (NCI), 48 h
[1] = system: PC-3 prostate
[2] = system: HCT-15 colon
[3] = system: CAKI-1 renal
[4] = system: SK-MEL-2 melanoma
[5] = system: SF-268 CNS
[6] = system: NCI-H460 lung
[7] = system: K-562 leukemia
[8] = system: T-47D breast
[9] = system: MALME-3M melanoma
[10] = system: RXF 393 renal
[11] = system: NCI-H226 lung
[12] = system: MDA-MB-435
[13] = system: SR leukemia
[14] = system: SNB-75 CNS
[15] = system: UO-31 renal
[16] = system: SW-620 colon
[17] = system: ACHN renal
[18] = system: TK-10 renal
[19] = system: HT29 colon
[20] = system: RPMI-8226 leukemia
[21] = system: BT-549 breast
[22] = system: HCC-2998 colon
[23] = system: UACC-257 melanoma
[24] = system: EKVX NSCLC
[25] = system: MDA-MB-231 breast
[26] = system: OVCAR-4 ovarian
[27] = system: 786-0 renal
[28] = system: A498 renal

## Cc1ccc2c(n1)C(=O)C(Cl)=C(Nc1ccccc1C(=O)OC(C)(C)C)C2=O
[1]
  GI50: 1.78 µM
  TGI: 4.19 µM
[2]
  GI50: 1.37 µM
  TGI: 3.32 µM
[3]
  GI50: 1.55 µM
  TGI: 2.9 µM
[4]
  GI50: 2.27 µM
  TGI: 6.78 µM
[5]
  GI50: 3.06 µM
  TGI: 14.7 µM
[6]
  GI50: 3.08 µM
  TGI: 11.3 µM
[7]
  GI50: 0.549 µM
  TGI: > 100 µM
[8]
  GI50: 1.84 µM
  TGI: 4.91 µM
[9]
  GI50: 1.66 µM
  TGI: 3.27 µM
[10]
  GI50: 1.62 µM
  TGI: 2.99 µM
[11]
  GI50: 6.77 µM
  TGI: > 100 µM
[12]
  GI50: 1.71 µM
  TGI: 3.19 µM
[13]
  GI50: 0.442 µM
  TGI: 7.86 µM
[14]
  GI50: 14.7 µM
  TGI: > 100 µM
[15]
  GI50: 1.42 µM
  TGI: 2.74 µM
[16]
  GI50: 1.84 µM
  TGI: 6.26 µM
[17]
  GI50: 1.75 µM
  TGI: 3.14 µM
[18]
  GI50: 1.81 µM
  TGI: 3.28 µM
[19]
  GI50: 2.94 µM
  TGI: 8.52 µM
[20]
  GI50: 1.78 µM
  TGI: 5.9 µM
[21]
  GI50: 2.9 µM
  TGI: 9.04 µM
[22]
  GI50: 1.75 µM
  TGI: 3.27 µM
[23]
  GI50: 1.69 µM
  TGI: 3.3 µM
[24]
  GI50: 1.59 µM
  TGI: 3.01 µM
[25]
  GI50: 1.58 µM
  TGI: 3.26 µM
[26]
  GI50: 1.4 µM
  TGI: 2.78 µM
[27]
  GI50: 1.69 µM
  TGI: 3.22 µM
[28]
  GI50: 12.4 µM

Reference: PubChem BioAssay (NCI)
